For test [1], the target named is PDGF-β receptor tyrosine kinase. As to the kind of experiment: PDGF receptor tyrosine kinase assay. The format is biochemical, mouse.
In test [2] the target is FGF-1 (flg) receptor tyrosine kinase. Kind of test: FGF receptor tyrosine kinase assay. The test is classed as biochemical, human.

This passage reports IC50 results from EP0964864B1, “PYRIDO 2,3-D PYRIMIDINES AND 4-AMINOPYRIMIDINES AS INHIBITORS OF CELLULAR PROLIFERATION” (priority 1997, dated 1998).

Regarding `CCNc1nc(Nc2ccccc2)ncc1C=CC(=O)OCC` [Example 17, Ethyl 3-(4-Ethylamino-2-phenylamino-pyrimidin-5-yl)acrylate], the IC50 came to 3.7 µM in test [1] and 4.5 µM in test [2].
